These results are taken from patent US10729659B2, “Nanogel-mediated drug delivery” (The Cleveland Clinic Foundation, priority 2012, dated 2020).

The conditions of series [1]: rat model; cited from earlier work.
Series [2] concerns MCF-7/Adr cells. In words: Cellular uptake of dox. In kind it is cell-based, human. Particulars: dox alone treated MCF-7/Adr cells. As to the method:
Drug resistant breast cancer cells were seeded in 24 well plates (1.2×10^6 cells/well). Post 48 h seeding, cells were pre-treated with DAC (50 ng/mL; 24 h); and then incubated with fixed concentration of dox (1 μg/mL) for indicated time points. Post drug incubation cell lysates in RIPA buffer was collected and lyophilized. Dox was extracted from lyophilized cell lysates using methanol as the solvent and analyzed by HPLC.

A further series concerns dox sensitive cell lines. In words: Dox cell viability by MTS assay, sensitive cell lines. In kind it is cell-based. Particulars: Homo sapiens; range over sensitive cell lines.
In a further series the test system is MCF-7 cells. In words: Cell cycle analysis by flow cytometry. The class given is cell-based, human. To be noted: DAC 50 ng/mL, dox 1 ng/mL, 48 h and 72 h, vs DAC alone or untreated. As to the method: (§1) Subconfluent cells were left untreated or treated with DAC (50 and 100 ng/mL) and dox (1 ng/mL) alone or in combination (sequential treatment) for 4-96 h. Cells were then trypsinized and then centrifuged at 1,300 rpm for 3 min at 4° C. Cell pellet was washed twice with ice cold 1X DPBS (pH 7.4) and resuspended in propidium iodide-(PI) solution (12.5 mg PI, 250 mg Sodium-Citrate and 250 μL Triton X-100 in 250 mL of water). Cells were then incubated in ice bucket, kept in cold room for 2 h, and DNA content was determined by flow cytometry using a FACScan flow cytometer (Becton Dickinson, San Jose, Calif.).
For orientation: Flow cytometry measures light scatter and fluorescence of single cells or particles in a stream.

Series [3] concerns MCF-7/Adr cells. In words: Cell cycle analysis by flow cytometry. To be noted: DAC 50 ng/mL, dox 1 ng/mL, 48 h and 72 h, vs DAC alone or untreated. In kind it is cell-based, human. As to the method:
as §1

A further series has as its system BT 459. In words: Sequential treatment, cell viability by MTS assay. The class given is cell-based. To be noted: Homo sapiens, dox alone, read-out: IC50 (Dox ng/mL). As to the method:
The efficacy of sequential treatment was tested in the following human breast cancer cell lines: MCF-7/Adr (drug resistant), MCF-7, MDAMB 231 and BT-459. Cells were seeded at 3000 cells per well/0.1 mL in 96-well plates (Microtest Becton Dickinson Labware, Franklin Lakes, N.J.). 24 h post seeding, cells were pretreated with DAC solution/nanogel for 24 h or 48 h and washed with 1×-DPBS. 0.1 mL of media containing dox solution or nanogel was added and incubated in CO2 incubator for 48 h. Cell viability was determined at the end of incubation period using a standard MTS assay (CellTiter 96 Aqueous, Promega, Madison, Wis.). To each well was added 20 μL of reagent, the plates were incubated for 2 h at 37° C. in cell culture incubator, and color intensity was measured at 490 nm using a micro plate reader (Bio-Tek Instrument, Winooski, Vt.). The effect of drug on cell proliferation was calculated as percentage growth of cells with respect to their respective controls. […]
(§2) The interaction between DAC and dox was analyzed using the Calcusyn software program (Biosoft, Ferguson, Mo.) to determine whether the simultaneous/sequential treatment was additive or synergistic.
Data from cell viability assay (MTS) was expressed as the fraction of cells killed by individual drugs or by their combination in drug-treated compared with untreated cells. […]
A general note: Formazan colour is commonly taken as a measure of viable cells.

The test system of another series is MCF-7/Adr. In words: Sequential/simultaneous treatment, cell viability by MTS assay. The class given is cell-based, human. To be noted: for IC50: Homo sapiens, NCI/ADR-RES. As to the method: The efficacy of sequential treatment was tested in the following human breast cancer cell lines: MCF-7/Adr (drug resistant), MCF-7, MDAMB 231 and BT-459. Cells were seeded at 3000 cells per well/0.1 mL in 96-well plates (Microtest Becton Dickinson Labware, Franklin Lakes, N.J.). 24 h post seeding, cells were pretreated with DAC solution/nanogel for 24 h or 48 h and washed with 1×-DPBS. 0.1 mL of media containing dox solution or nanogel was added and incubated in CO2 incubator for 48 h. Cell viability was determined at the end of incubation period using a standard MTS assay (CellTiter 96 Aqueous, Promega, Madison, Wis.). To each well was added 20 μL of reagent, the plates were incubated for 2 h at 37° C. in cell culture incubator, and color intensity was measured at 490 nm using a micro plate reader (Bio-Tek Instrument, Winooski, Vt.). The effect of drug on cell proliferation was calculated as percentage growth of cells with respect to their respective controls. For simultaneous treatment DAC solution or nanogel, and dox solution or nanogel were added together to cells, and the above mentioned protocol was followed.
as §2
Data from cell viability assay (MTS) was expressed as the fraction of cells killed by individual drugs or by their combination in drug-treated compared with untreated cells. This program is based upon Chou-Talalay method. It calculates combination index (CI) of drugs. From the CI values, synergistic action of drugs can be analysed. The CI equal to 1, indicates the additive effect and CI<1 and CI>1, indicates synergistic and antagonistic activity respectively.

The structures appear in SMILES notation. Converted amounts (≈) assume the structure as drawn. Like-named read-outs stand apart in the source and are kept apart here.

Procedure for dox sensitive cell lines: Cells were seeded at 3000 cells per well/0.1 mL in 96-well plates (Microtest Becton Dickinson Labware, Franklin Lakes, N.J.). […] Cell viability was determined at the end of incubation period using a standard MTS assay (CellTiter 96 Aqueous, Promega, Madison, Wis.). To each well was added 20 μL of reagent, the plates were incubated for 2 h at 37° C. in cell culture incubator, and color intensity was measured at 490 nm using a micro plate reader (Bio-Tek Instrument, Winooski, Vt.). The effect of drug on cell proliferation was calculated as percentage growth of cells with respect to their respective controls. For simultaneous treatment DAC solution or nanogel, and dox solution or nanogel were added together to cells, and the above mentioned protocol was followed.

Take `Nc1ncn([C@@H]2O[C@H](CO)[C@@H](O)[C@H]2O)c(=O)n1` [5-azacytidine]: the Carcinogenicity result in series [1] is given as “carcinogenic”.
In the case of `COc1cccc2c1C(=O)c1c(O)c3c(c(O)c1C2=O)C[C@@](O)(C(=O)CO)C[C@@H]3O[C@H]1C[C@H](N)[C@H](O)[C@H](C)O1` [Dox, doxorubicin], the “Incubation time after which drug concentration reached plateau” value in the series with MCF-7/Adr cells [2] was determined as 1 h. Also, the IC50 with dox sensitive cell lines is 0.019 to 0.102 µg/mL (≈ 0.035 to 0.188 µM); with BT 459 it was 102 ± 4.7 ng/mL; in the series on MCF-7/Adr (dox alone, mean ± s.e.m., three experiments, read-out: IC50 (Dox ng/mL)) it was 7380 ng/mL; in the series with MCF-7/Adr (pretreated with DAC 24 h, then dox 48 h, read-out: IC50 (Sequential - Deci + Dox ng/mL)) it was not above 1 ng/mL. Also, the G2/M arrest entry with MCF-7 cells and in the series with MCF-7/Adr cells [3] was “no difference” in each case. For the same compound, in the series on MCF-7/Adr (dox alone, mean ± s.e.m., three experiments), the “IC50 (Dox ng/mL)” value is given as 7385.2 ± 698 ng/mL.
